Experimental data from PMC6628648, “Enabling microbial syringol conversion through structure-guided protein engineering” (Proceedings of the National Academy of Sciences of the …, 2019).

Columns and labels:
GcoA variant F169L = target: T1, GcoA variant F169L (Amycolatopsis sp., UniProt P0DPQ7, F169L); assay: NADH consumption assay (specific activity) with GcoB; type: biochemical, Amycolatopsis sp. ATCC 39116; conditions: saturating (200 µM) substrate, pH 7.5, 25°C
T1 construct: GST (N, cleaved yes); made in house; host or cells: E. coli Rosetta 2 (DE3)

GcoA-F169A = GcoA-F169A (Amycolatopsis sp., UniProt P0DPQ7, F169A); assay: End-point stoichiometry and coupling assay (formaldehyde by tryptophan assay, aromatics by HPLC, NADH by UV/vis); type: biochemical, Amycolatopsis sp. ATCC 39116; set-up: GST (N, cleaved yes); made in house; host or cells: E. coli Rosetta 2 (DE3); conditions: for Coupling efficiency: F169A, molar ratio formaldehyde produced per NADH consumed, 200 µM NADH, 200 µM aromatic substrate; for % Formaldehyde produced: referenced to NADH consumed; for formaldehyde produced at reaction completion: 100 μM substrate
Description: Fig. 1. Quantitative analyses of substrate consumption and product generation indicate nearly complete coupling of NADH/O2 consumption to substrate O-demethylation for guaiacol and progressively more uncoupling for syringol and 3MC. […] Reactants and products were quantified when the UV/vis spectrum ceased changing and the reaction was deemed complete. The total NADH consumed is compared with the amounts of formaldehyde and demethylated aromatic compound produced. Pyrogallol, the O-demethylated product of 3MC, is unstable in air under the conditions used in the assay and was not detected. Error bars represent ±1 SD from three or more independent measurements. P values comparing NADH consumption and formaldehyde production were 0.035 for guaiacol, 0.20 for 100 µM syringol, 0.41 for 200 µM syringol, and 0.0035 for 3MC. For NADH consumption and aromatic product production, these P values were 0.011 for guaiacol, 0.00031 for 100 µM syringol, and 0.0084 for 200 µM syringol.
The [formaldehyde] produced on reaction with GcoA-F169A and substrates was determined using a colorimetric assay with tryptophan ([28], [42]); details are provided in SI Appendix.
HPLC was used to verify the O-demethylated product of GcoA-F169A GcoA/GcoB with guaiacol, syringol, or 3MC. In addition, discontinuous HPLC was used to determine the specific activity of aromatic product disappearance. Details are provided in SI Appendix. […]
vi = Vmax[S]/(KM + [S]) (4) […]
Formaldehyde determination. A colorimetric assay using tryptophan can be used to quantify the amount of formaldehyde produced in F169 GcoA/B reactions with guaiacol, syringol, or 3MC. 0.2 µM each of F169 GcoA mutants and GcoB were dissolved in air-saturated buffer (25 mM HEPES, 50 mM NaCl) in a cuvette at pH 7.5, 25 °C. 100 µg/mL catalase was added to each reaction to capture any H2O2 formed during the uncoupled reaction. 200 μM NADH was added and the background rate recorded. 100 (guaiacol, syringol, or 3MC) or 200 (syringol) μM of substrate was then added and the reaction monitored until there was no more change, due to either substrate, NADH or O2 depletion, whichever occurred first. 200 µL of the reaction was then quenched by adding 200 µL of a 0.1% tryptophan solution in 50% ethanol and 200 µL of 90% sulfuric acid. Upon thorough mixing, 40 µL of 1% FeCl3 was added. The solution was then incubated in a heating block for 90 min at 70 °C. After cooling, the absorbance was read at 575 nm and the [formaldehyde] calculated by using ε575 nm = 4.2 mM-1 cm-1, obtained with formaldehyde as a standard (1). A negative control included everything but the substrate and was used as a baseline.
HPLC for product identification and specific activity measurement. Analyte analysis of the above end-point reactions (100 μM guaiacol, syringol, or 3MC, or 200 μM syringol) was performed on an Agilent 1100 LC system (Agilent Technologies) equipped with a G1315B diode array detector (DAD). Each sample and standard was injected at a volume of 10 μL onto a Symmetry C18 column 5 μm, 4.6 x 150 mm column (Waters). The column temperature was maintained at 30 °C and the buffers used to separate the analytes of interest was 0.01% TFA in water (A)/ acetonitrile (B). The separation was carried out using a gradient program of: (A) = 99% and (B) = 1% at time t = 0 min; (A) = 99% and (B) = 1% at time t = 2 min, (A) = 50% and (B) = 50% at t = 8 min; (A) = 1% and (B) = 99% at t = 8.01 min; (A) = 99% and (B) = 1% at t = 10.01 min; (A) = 99% and (B) = 1% at t = 11 min. The flow rate was held constant at 1.5 mL min-1, resulting in a run time of 11 minutes. DAD wavelengths of 210 and 325 nm were used for analysis of the analytes of interest. Standard curves were generated using 0-500 μM of guaiacol, syringol, 3MC, catechol, and pyrogallol. Integrated intensities vs [standards] were plotted and the resulting standard curves used to quantify the reactants and products. […]

[1] = GcoA-F169A, 100 µM substrate + 100 µM NADH
[2] = GcoA-F169A, 200 μM NADH, 210 μM O2
[3] = GcoA-F169A, NADH and syringol ∼200 μM each, 210 μM O2

T1 sequence (P0DPQ7 whole entry F169L): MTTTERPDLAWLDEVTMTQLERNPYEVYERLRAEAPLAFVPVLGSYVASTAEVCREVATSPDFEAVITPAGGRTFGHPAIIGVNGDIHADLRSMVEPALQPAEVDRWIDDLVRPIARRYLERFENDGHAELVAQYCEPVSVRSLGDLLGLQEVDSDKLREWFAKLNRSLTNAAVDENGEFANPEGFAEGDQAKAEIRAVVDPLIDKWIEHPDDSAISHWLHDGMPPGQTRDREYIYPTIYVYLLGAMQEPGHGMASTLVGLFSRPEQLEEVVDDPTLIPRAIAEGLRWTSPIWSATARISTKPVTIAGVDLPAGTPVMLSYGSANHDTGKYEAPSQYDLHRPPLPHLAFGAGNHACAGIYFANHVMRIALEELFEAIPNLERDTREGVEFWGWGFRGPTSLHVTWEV
GcoA-F169A, sequence (P0DPQ7 whole entry F169A): as the sequence (P0DPQ7 whole entry F169L) above, with L169A counted along it

Compound	Specific activity (GcoA variant F169L)	Coupling efficiency (GcoA-F169A)	% Formaldehyde produced (GcoA-F169A; [1])	formaldehyde produced at reaction completion (GcoA-F169A; [2])	% Formaldehyde produced (GcoA-F169A; GcoA-F169A, 100 µM substrate + 200 µM NADH)	singly demethylated intermediate 3MC observed at the end of the reaction (GcoA-F169A; GcoA-F169A, 100 μM syringol, 200 μM NADH, 210 μM O2)	3MC generated (GcoA-F169A; [3])	formaldehyde generated (GcoA-F169A; [3])	syringol consumed (GcoA-F169A; [3])
COc1ccccc1O [guaiacol, 2-methoxyphenol]	4.5 ± 0.3 μmol sec-1 μmol-1 GcoA	103 ± 7%	100 ± 10%						
COc1cccc(O)c1O [3MC, 3-methoxycatechol]	0.57 ± 0.2 μmol sec-1 μmol-1 GcoA	64 ± 10%	52 ± 7%	~100 µM					
COc1cccc(OC)c1O [syringol, 2,6-dimethoxyphenol]	0.54 ± 0.1 μmol sec-1 μmol-1 GcoA	104 ± 6%	125 ± 6%	170 ± 10 µM	91 ± 8%	50 ± 4 µM	120 ± 2 µM	200 ± 3 µM	150 ± 6 µM
